Data published in ChEMBL document CHEMBL1157210, “Neurosteroid analogues. 12. Potent enhancement of GABA-mediated chloride currents at GABAA receptors by ent-androgens” (Eur J Med Chem, 2008).

What was measured:
Rattus norvegicus [1] = species on record: Rattus norvegicus; assay: Activity at rat GABAA alpha-1-beta-2-gamma-2L receptor expressed in Xenopus laevis expressed in assessed as ratio of current in treated to non-treated oocyte at 1 uM by electrophysiology
Xenopus laevis [2] = assay: Anesthetic effect in Xenopus laevis assessed as loss of swimming response; type: functional, organism-based
Rattus norvegicus [3] = species on record: Rattus norvegicus; assay: Activity at rat GABAA alpha-1-beta-2-gamma-2L receptor expressed in Xenopus laevis expressed in assessed as ratio of current in treated to non-treated oocyte at 10 uM by electrophysiology
Rattus norvegicus [4] = species on record: Rattus norvegicus; assay: Activity at rat GABAA alpha-1-beta-2-gamma-2L receptor expressed in Xenopus laevis assessed as ratio of current in treated to non-treated oocyte at 0.1 uM by electrophysiology
Xenopus laevis [5] = assay: Anesthetic effect in Xenopus laevis assessed as loss of righting response; type: functional, organism-based
Rattus norvegicus [6] = species on record: Rattus norvegicus; assay: Activity at rat GABAA alpha-1-beta-2-gamma-2L receptor expressed in Xenopus laevis assessed as ratio of current in drug-treated to GABA-treated oocyte at 10 uM by electrophysiology
[7] = Displacement of […] from GABAA receptor in rat brain; type: tissue-based

Structure (SMILES)	Ratio (Rattus norvegicus [1])	EC50 (Xenopus laevis [2])	Ratio (Rattus norvegicus [3])	Ratio (Rattus norvegicus [4])	EC50 (Xenopus laevis [5])	Ratio (Rattus norvegicus [6])	IC50 [7]
CC(=O)[C@H]1CC[C@H]2[C@@H]3CC[C@H]4C[C@H](O)CC[C@]4(C)[C@H]3CC[C@]12C [BREXANOLONE]	3.89	5500 nM	9.65	1.26	420 nM	0.37	74 nM
C[C@@]12CC[C@H](O)C[C@@H]1CC[C@@H]1[C@@H]2CC[C@@]2(C)C(=O)CC[C@@H]12	2.34	8900 nM	14.1	1.4	1970 nM	0.09	380 nM
C[C@@]12CC[C@H](O)C[C@@H]1CC[C@@H]1[C@@H]2CC[C@]2(C)[C@H]1CC[C@]21CO1	10.5	2760 nM	20.8	1.86	1730 nM	0.12	390 nM
C[C@]12CC[C@@H](O)C[C@H]1CC[C@@H]1[C@@H]2CC[C@]2(C)C(=O)CC[C@@H]12 [ETIOCHOLANOLONE]	0.87		1.39	0.89		0	4150 nM
CC(=O)[C@@H]1CC[C@H]2[C@@H]3CC[C@H]4C[C@@H](O)CC[C@@]4(C)[C@H]3CC[C@@]12C	2.82	890 nM	7.92	1.28	70 nM	0.06	280 nM
C[C@]12CC[C@@H](O)C[C@H]1CC[C@@H]1[C@@H]2CC[C@@]2(C)[C@H]1CC[C@@]21CO1	5.17	1730 nM	25.4	1.28	990 nM	0.03	220 nM
C[C@]12CC[C@@H](O)C[C@@H]1CC[C@@H]1[C@@H]2CC[C@]2(C)C(=O)CC[C@@H]12 [ANDROSTERONE]	1.41		5.44	0.97	3380 nM	0.02	410 nM
C[C@@]12CC[C@H](O)C[C@H]1CC[C@@H]1[C@@H]2CC[C@@]2(C)C(=O)CC[C@@H]12	3.66	5480 nM	18.9	1.27	1420 nM	0.03	310 nM
C[C@@]12CC[C@H](O)C[C@H]1CC[C@@H]1[C@@H]2CC[C@]2(C)[C@H]1CC[C@]21CO1	15.9	2710 nM	26.3	2.62	1080 nM	0.1	470 nM
CC(=O)[C@@H]1CC[C@H]2[C@@H]3CC[C@@H]4C[C@@H](O)CC[C@@]4(C)[C@H]3CC[C@@]12C	0.92	> 5000 nM	1.17	0.95	970 nM	0.02	1910 nM
CC(=O)[C@H]1CC[C@H]2[C@@H]3CC[C@@H]4C[C@H](O)CC[C@]4(C)[C@H]3CC[C@]12C [ELTANOLONE]	2.82	300 nM	9.77	1.2	60 nM	0.06	71 nM
C[C@]12CC[C@@H](O)C[C@@H]1CC[C@@H]1[C@@H]2CC[C@@]2(C)[C@H]1CC[C@@]21CO1	21.9	2760 nM	33.7	3.11	1350 nM	0.22	110 nM
